Structures can show the parent of a compound that is named as a salt. Where two headings read alike, the source gives them in different places.
Experiments:
[1] = tested on: Cryptosporidium parvum; assay: qRT-PCR assay of the growth of C. parvum in vitro in HCT-8 host cells (primary and secondary screening, EC50); format: cell-based; conditions: Cryptosporidium parvum, HCT-8; for inhibition at 10 µM: primary screening at 10 uM, read-out: Inhibition (%); for inhibition at 3.3 µM: secondary screening at 3.3 uM, read-out: % Inhibition (3.3 uM)
[2] = tested on: HCT-8 host cells (Hs18S)
[3] = in vitro; conditions: for cytotoxicity at 41 h, 10 µM: human
[4] = primary screening at 10 uM, treated vs control

Row | Structure (SMILES) | inhibition at 10 µM [1] | Hs18S ΔCT ([2]; human, 41 h, 10 μM) | cytotoxicity at 41 h, 10 µM [3] | inhibition at 3.3 µM [1] | Hs18S ΔCT [2, 4] | cytotoxicity at 10 µM [3]
1 | O=C(/C=C/c1ccccc1)c1ccc(O)cc1 [4'-HYDROXYCHALCONE] | 9.45% | 0.33 | 20.5% | – | – | –
2 | CC(=O)O[C@@H]1C[C@H]2C(C)(C)C(=O)CC[C@]2(C)[C@H]2CC[C@@]3(C)[C@H](c4ccoc4)OC(=O)[C@H]4O[C@]43[C@@]21C [DIHYDROGEDUNIN] | 33.3% | -0.24 | -17.9% | – | – | –
3 | CO[C@H]1C[C@@H]2CC[C@@H](C)[C@@](O)(O2)C(=O)C(=O)N2CCCC[C@H]2C(=O)O[C@H]([C@H](C)C[C@@H]2CC[C@@H](O)[C@H](OC)C2)CC(=O)[C@H](C)/C=C(\C)[C@@H](O)[C@@H](OC)C(=O)[C@H](C)C[C@H](C)/C=C/C=C/C=C/1C [SIROLIMUS] | 76.6% | 0.94 | 47.9% | 35% | – | –
4 | CC1(C)CC23C(=O)CCC(O)C2(C)CCC13 (stereo not shown) [3-NOR-3-OXOPANASINSAN-6-OL] | 23.9% | 0.24 | 15.3% | – | – | –
5 | C[C@@H]1CC[C@@]2(OC1)O[C@H]1C[C@H]3[C@@H]4CC=C5C[C@@H](O)CC[C@]5(C)[C@H]4CC[C@]3(C)[C@H]1[C@@H]2C [DIOSGENIN] | 14.7% | – | – | – | 0.32 | 19.7%
6 | Cc1cc(O)cc(=O)o1 | 15.4% | – | – | – | 0.04 | 3.1%
7 | COc1c(-c2coc3cc4c(cc3c2=O)CC(OC(C)=O)C(C)(C)O4)ccc2c1C=CC(C)(C)O2 (stereo not shown) [MUNDULONE ACETATE] | -3.19% | 0.37 | 22.6% | – | – | –
8 | O=c1c(O)cc([C@H]2Oc3cc(O)cc(O)c3C[C@H]2O)cc2c([C@H]3Oc4cc(O)cc(O)c4C[C@H]3O)cc(O)c(O)c12 [THEAFLAVIN] | 10.2% | 0.11 | 7.6% | – | – | –
9 | O=C1c2ccccc2C(=O)c2c(O)c(O)cc(O)c21 [PURPURIN] | -37.2% | – | -14.3% | – | -0.19 | –
10 | COc1cccc(-c2cc(=O)c3cc(OC)ccc3o2)c1 [6,3'-DIMETHOXYFLAVONE] | 1.27% | -0.08 | -5.6% | – | – | –
11 | Nc1ccn([C@@H]2O[C@H](CO)[C@@H](O)[C@H]2O)c(=O)n1 [CYTIDINE] | 36.7% | -0.53 | -44.6% | – | – | –
12 | Cc1cc(O)c(C)c(O)c1C(=O)O [3-METHYLORSELLINIC ACID] | 30.8% | 0.05 | 3.6% | – | – | –
13 | CC1=C2[C@H]3OC(=O)[C@@H](C)[C@@H]3CC[C@@]2(C)C=CC1=O [SANTONIN] | 9.41% | – | – | – | 0.18 | 11.8%
14 | O=c1oc2c(O)c(O)cc3c(=O)oc4c(O)c(O)cc1c4c23 [ELLAGIC ACID] | -14.6% | -0.05 | -3.6% | – | – | –
15 | C=C[C@@](C)(O)CCC=C(C)C [LINALOOL (+)] | -23.3% | – | – | – | 0.09 | 6.1%
16 | OC[C@@H](O)[C@@H](O)[C@@H](O)CO [ADONITOL] | 6.19% | 0.26 | 16.4% | – | – | –
17 | c1coc(CNc2ncnc3[nH]cnc23)c1 [KINETIN] | -42.7% | 0.54 | 31% | – | – | –
18 | Nc1ncnc2nc[nH]c12 [ADENINE] | -9.27% | – | -5.9% | – | -0.08 | –
19 | COc1ccc(CC(=O)c2ccc(O)cc2O)cc1 [ONONETIN] | 8.27% | -0.18 | -12.9% | – | – | –
20 | C=CCCCCCCCCCCCC(O)CC(O)COC(C)=O (stereo not shown) [AVOCATIN A] | 46% | 0.00 | -0.1% | – | – | –
21 | COc1ccc(-c2c(O)c3c(OC)c4c(cc3oc2=O)OC(C)(C)C=C4)cc1 [ROBUSTIC ACID] | 9.13% | 0.28 | 17.8% | – | – | –
22 | CCCCCC[C@H]1C(=O)O[C@H](C)[C@H](NC(=O)c2cccc(NC=O)c2O)C(=O)O[C@@H](C)[C@@H]1OC(=O)CC(C)C [ANTIMYCIN A, ANTIMYCIN A (A1 shown)] | 10.9% | – | – | – | 0.12 | 7.7%
23 | C[C@@]12C[C@@]3(O)O[C@@H](O1)[C@]1(COC(=O)c4ccccc4)[C@H]3C[C@@]12O[C@@H]1O[C@H](CO)[C@@H](O)[C@H](O)[C@H]1O [PEONIFLORIN] | -19.9% | -0.11 | -7.6% | – | – | –
24 | O=C(O)[C@@H](O)[C@H](O)[C@H](O)[C@@H](O)C(=O)O [MUCIC ACID] | -14.3% | -0.19 | -13.8% | – | – | –

Row | Structure (SMILES) | inhibition at 10 µM [1] | Hs18S ΔCT ([2]; human, 41 h, 10 μM) | cytotoxicity at 41 h, 10 µM [3] | inhibition at 3.3 µM [1] | Hs18S ΔCT [2, 4] | cytotoxicity at 10 µM [3]
25 | CC[C@]12CCCN3CCc4c(n(c5ccccc45)[C@@](O)(C(=O)OC)C1)[C@@H]32 [VINCAMINE] | -20.8% | 0.12 | 8.2% | – | – | –
26 | CC(C)=CC1C(CO)C1(C)C (stereo not shown) [CHRYSANTHEMYL ALCOHOL] | -16.9% | -0.13 | -9.5% | – | – | –
27 | CC(C)c1ccc2c(c1)CC[C@H]1[C@](C)(C(N)=O)CCC[C@]21C [DEHYDROABIETAMIDE] | 8.3% | -0.01 | -0.7% | – | – | –
28 | NC[C@H]1O[C@H](O[C@H]2[C@H](O)[C@@H](O[C@H]3O[C@H](CO)[C@@H](O)[C@H](N)[C@H]3O)[C@H](N)C[C@@H]2N)[C@H](O)[C@@H](O)[C@@H]1O [KANAMYCIN A SULFATE] | 29.3% | -0.31 | -23.9% | – | – | –
29 | C=C(C)[C@H]1CN[C@H](C(=O)O)[C@H]1CC(=O)O [KAINIC ACID] | -19.9% | – | – | – | -0.04 | -2.6%
30 | COC(=O)c1c(C)cc(O)cc1O [METHYL ORSELLINATE] | -34.8% | 0.31 | 19.6% | – | – | –
31 | C[C@H]1[C@H]2CC[C@H]3[C@@H]4CC=C5C[C@@H](N(C)C)CC[C@]5(C)[C@H]4CC[C@]23CN1C [CONESSINE] | -2.33% | -0.14 | -10.4% | – | – | –
32 | NCC(O)c1ccc(O)cc1 (stereo not shown) [OCTOPAMINE HYDROCHLORIDE] | 85.1% | -0.21 | -15.8% | -12% | – | –
33 | COC1=C[C@@H](C)[C@@H]2C[C@H]3OC(=O)C[C@H]4C(C)=C(OC)C(=O)[C@H]([C@@]2(C)C1=O)[C@@]34C [QUASSIN] | 29.4% | 0.08 | 5.1% | – | – | –
34 | COc1ccc2c(C)cc(=O)oc2c1 [HYMECROMONE METHYL ETHER] | -1.44% | 0.26 | 16.6% | – | – | –
35 | C[C@]12CC[C@H](O)CC1=CC[C@@H]1[C@@H]2CC[C@]2(C)C(=O)CC[C@@H]12 [DEHYDROEPIANDROSTERONE] | 7.05% | – | – | – | -0.03 | -1.9%
36 | O=c1c(O)c(-c2ccccc2)oc2ccccc12 [3-HYDROXYFLAVONE] | 92.4% | -0.04 | -2.7% | -28% | – | –
37 | CCOc1cccc(C(=O)c2ccc(O)c(O)c2O)c1 | -37.2% | -0.39 | -31.4% | – | – | –
38 | O=c1c2cc(O)c(O)cc2oc2cc(O)c([C@@H]3O[C@H](CO)[C@@H](O)[C@H](O)[C@H]3O)c(O)c12 [MANGIFERIN] | -3.49% | 0.18 | 11.5% | – | – | –
39 | C[C@H](CCC(=O)O)[C@H]1CC[C@H]2[C@@H]3[C@@H](O)C[C@@H]4C[C@H](O)CC[C@]4(C)[C@H]3CC[C@]12C [URSODIOL] | -41.7% | -0.15 | -10.9% | – | – | –
40 | C[C@H](CCC(=O)O)[C@H]1CC[C@H]2[C@@H]3CC[C@@H]4C[C@H](O)CC[C@]4(C)[C@H]3CC[C@]12C [LITHOCHOLIC ACID] | -55.8% | 0.65 | 36.1% | – | – | –
41 | COc1cc(C)c(C(=O)O)c(O)c1 [EVERNINIC ACID] | 52.1% | -0.34 | -26.6% | – | – | –
42 | C=CCc1ccc(OC)cc1 [ESTRAGOLE] | 99.6% | – | – | 15% | -0.22 | -16.6%
43 | C[C@H]1O[C@@H](O[C@H]2[C@@H](O)C[C@H](O[C@H]3[C@@H](O)C[C@H](O[C@H]4CC[C@@]5(C)[C@H](CC[C@@H]6[C@@H]5CC[C@]5(C)[C@@H](C7=CC(=O)OC7)[C@@H](O)C[C@]65O)C4)O[C@@H]3C)O[C@@H]2C)C[C@H](O)[C@@H]1O [GITOXIN] | 35.4% | – | – | – | 0.08 | 5.4%
44 | COC1=C(O)C(=O)c2c(cc3oc(C(C)=O)c(O)c3c2O)C1=O [RHODOCLADONIC ACID] | 1.58% | -0.03 | -2.1% | – | – | –
45 | C[C@H]1C(=O)CC[C@@H]2[C@]1(C)CC[C@H]1[C@@]2(C)CC[C@@]2(C)[C@@H]3CC(C)(C)CC[C@]3(C)CC[C@]12C [FRIEDELIN] | 20.8% | – | – | – | -0.23 | -17.6%
46 | COC(=O)CC[C@@H](C)[C@H]1CC[C@H]2[C@@H]3CC[C@@H]4C[C@H](O)CC[C@]4(C)[C@H]3C[C@H](O)[C@]12C [METHYL DEOXYCHOLATE] | 23.4% | 0.66 | 36.7% | – | – | –
47 | CC(=O)O[C@H]1C[C@@H](OC(C)=O)C(C)(C)[C@@H]2C[C@@H](OC(C)=O)[C@]3(C)[C@H](CC[C@@]4(C)[C@H](c5ccoc5)OC(=O)[C@H]5O[C@@]534)[C@@]12C [KHIVORIN] | 52.4% | 0.12 | 8% | – | – | –

Source: PMC6736568, “Discovery of Novel Anti-cryptosporidial Activities From Natural Products by in vitro High-Throughput Phenotypic Screening” (Frontiers in Microbiology, 2019)
